{"source": "patent US10208046B2", "about": "“Nitrogen-containing heterocyclic compound” (Takeda Pharmaceutical Company Limited, priority 2014, dated 2019)", "biological_target": "T1, human M1 receptor (hCHRM1) (Homo sapiens, UniProt P11229)", "T1 construct": "expressed in transfected cells", "T1 sequence (P11229 1-460)": "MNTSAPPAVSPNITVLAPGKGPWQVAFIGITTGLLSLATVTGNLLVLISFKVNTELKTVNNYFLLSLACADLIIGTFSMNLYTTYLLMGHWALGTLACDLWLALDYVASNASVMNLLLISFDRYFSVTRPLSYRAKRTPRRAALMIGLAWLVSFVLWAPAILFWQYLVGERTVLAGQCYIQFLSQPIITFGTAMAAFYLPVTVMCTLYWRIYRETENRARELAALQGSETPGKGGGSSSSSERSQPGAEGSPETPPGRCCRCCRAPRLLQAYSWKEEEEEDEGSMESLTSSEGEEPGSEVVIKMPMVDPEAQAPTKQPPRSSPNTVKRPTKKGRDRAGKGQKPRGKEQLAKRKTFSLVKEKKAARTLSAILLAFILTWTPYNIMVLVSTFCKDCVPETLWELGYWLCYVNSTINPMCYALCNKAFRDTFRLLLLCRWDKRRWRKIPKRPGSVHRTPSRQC", "test": "Measurement of M1 receptor positive allosteric modulator (M1PAM) activity, calcium fluorescence in CHO-K1 cells;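 as to EC50: potency reported as IP value in nM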", "assay_type": "cell-based", "conditions": "for activity (%) at 10 μM: 10 μM test compound with acetylcholine at EC20, 100% = acetylcholine 1 μM, 0% = DMSO; for EC50: inflection point in the concentration-dependent curve, acetylcholine at EC20 (final 0.6-0.8 nM), CHO-K1 cells expressing human M1, Fluo-4, FLIPRtetra, read-out: IP value", "method": "Measurement of M1 Receptor Positive Allosteric Modulator (M1PAM) Activity\nThe activity of a test compound in the presence of acetylcholine at EC20 concentration (final concentration 0.6-0.8 nM), which affords an action corresponding to about 20% of the maximum activity, was measured as PAM activity. The method is as follows. CHO-K1 cells stably expressing a human M1 receptor (hCHRM1) were plated on a 384-well black clear bottom plate (BD Falcon) at 5,000 cells/well, and cultured in an incubator at 37° C., 5% CO2 for 1 day. The medium in the cell plate was removed, and assay buffer A containing calcium indicator (Recording medium (DOJINDO LABORATORIES), 0.1% BSA (Wako Pure Chemical Industries, Ltd.), 2.5 μg/mL Fluo-4 AM (DOJINDO LABORATORIES), 0.08% Pluronic F127 (DOJINDO LABORATORIES), 1.25 mM probenecid (DOJINDO LABORATORIES)) was added at 30 μL/well. The cells were left standing in the incubator at 37° C., 5% CO2 for 30 min, and further left standing at room temperature for 30 min. A test compound prepared by diluting with assay buffer B (HBSS (Invitrogen), 20 mM HEPES (Invitrogen), 0.1% BSA) containing 2.4-3.2 nM acetylcholine was added at 10 μL/well, and the fluorescence was measured by FLIPRtetra (Molecular Devices) for 1 min every 1 second. With the definition that the amount of change in the fluorescence on addition of acetylcholine (final concentration 1 μM) is 100% and that on addition of DMSO instead of a test compound is 0%, the activity (%) of the test compound was calculated, and the inflection point in the concentration-dependent curve of the test compound was calculated as IP values.", "data": [{"smiles": "CCC(F)(F)COc1nccc2c1C(=O)N(Cc1ccc(-c3cnn(CC(F)F)c3)cc1)C2", "note": "[Example 76, 4-(2,2-difluorobutoxy)-2-(4-(1-(2,2-difluoroethyl)-1H-pyrazol-4-yl)benzyl)-1,2-dihydro-3H-pyrrolo[3,4-c]pyridin-3-one]", "values": [{"measurement": "activity (%) at 10 μM", "value": 94, "unit": "%"}, {"measurement": "EC50", "value": 45, "unit": "nM"}]}, {"smiles": "CCC(F)(F)COc1ncnc2c1C(=O)N(Cc1ccc(-c3cn(C)nc3C)cc1)C2", "note": "[Example 8, 4-(2,2-difluorobutoxy)-6-(4-(1,3-dimethyl-1H-pyrazol-4-yl)benzyl)-6,7-dihydro-5H-pyrrolo[3,4-d]pyrimidin-5-one]", "values": [{"measurement": "activity (%) at 10 μM", "value": 109, "unit": "%"}, {"measurement": "EC50", "value": 23, "unit": "nM"}]}, {"smiles": "Cc1nn(C)cc1-c1ccc(CN2Cc3ncnc(OCC(F)(F)F)c3C2=O)c(F)c1", "note": "[Example 36, 6-(4-(1,3-dimethyl-1H-pyrazol-4-yl)-2-fluorobenzyl)-4-(2,2,2-trifluoroethoxy)-6,7-dihydro-5H-pyrrolo[3,4-d]pyrimidin-5-one]", "values": [{"measurement": "activity (%) at 10 μM", "value": 99, "unit": "%"}, {"measurement": "EC50", "value": 22, "unit": "nM"}]}, {"smiles": "CCn1cc(-c2ccc(CN3Cc4ncnc(OCC(C)(F)F)c4C3=O)cc2)cn1", "note": "[Example 1, 4-(2,2-difluoropropoxy)-6-(4-(1-ethyl-1H-pyrazol-4-yl)benzyl)-6,7-dihydro-5H-pyrrolo[3,4-d]pyrimidin-5-one]", "values": [{"measurement": "activity (%) at 10 μM", "value": 91, "unit": "%"}, {"measurement": "EC50", "value": 17, "unit": "nM"}]}, {"smiles": "CCC(F)(F)COc1ncnc2c1C(=O)N(Cc1ccc(C(=O)NC)cc1)C2", "note": "[Example 10, 4-((4-(2,2-difluorobutoxy)-5-oxo-5,7-dihydro-6H-pyrrolo[3,4-d]pyrimidin-6-yl)methyl)-N-methylbenzamide]", "values": [{"measurement": "activity (%) at 10 μM", "value": 103, "unit": "%"}, {"measurement": "EC50", "value": 33, "unit": "nM"}]}, {"smiles": "Cn1ccc(-c2ccc(CN3Cc4ncnc(OCC(F)(F)F)c4C3=O)c(F)c2)n1", "note": "[Example 9, 6-(2-fluoro-4-(1-methyl-1H-pyrazol-3-yl)benzyl)-4-(2,2,2-trifluoroethoxy)-6,7-dihydro-5H-pyrrolo[3,4-d]pyrimidin-5-one]", "values": [{"measurement": "activity (%) at 10 μM", "value": 102, "unit": "%"}, {"measurement": "EC50", "value": 77, "unit": "nM"}]}, {"smiles": "CC(F)(F)COc1nccc2c1C(=O)N(Cc1ccc(-c3ccns3)cc1)C2", "note": "[Example 20, 4-(2,2-difluoropropoxy)-2-(4-(1,2-thiazol-5-yl)benzyl)-1,2-dihydro-3H-pyrrolo[3,4-c]pyridin-3-one]", "values": [{"measurement": "activity (%) at 10 μM", "value": 91, "unit": "%"}, {"measurement": "EC50", "value": 360, "unit": "nM"}]}, {"smiles": "CCC(F)(F)COc1nccc2c1C(=O)N(Cc1ccc(-c3cnn(C(F)F)c3)cc1)C2", "note": "[Example 63, 4-(2,2-difluorobutoxy)-2-(4-(1-(difluoromethyl)-1H-pyrazol-4-yl)benzyl)-1,2-dihydro-3H-pyrrolo[3,4-c]pyridin-3-one]", "values": [{"measurement": "activity (%) at 10 μM", "value": 91, "unit": "%"}, {"measurement": "EC50", "value": 96, "unit": "nM"}]}, {"smiles": "Cc1nn(C)cc1-c1ccc(CN2Cc3ncnc(OCC(F)F)c3C2=O)c(F)c1", "note": "[Example 40, 4-(2,2-difluoroethoxy)-6-(4-(1,3-dimethyl-1H-pyrazol-4-yl)-2-fluorobenzyl)-6,7-dihydro-5H-pyrrolo[3,4-d]pyrimidin-5-one]", "values": [{"measurement": "activity (%) at 10 μM", "value": 96, "unit": "%"}, {"measurement": "EC50", "value": 9, "unit": "nM"}]}, {"smiles": "Cn1cc(-c2ccc(CN3Cc4ncnc(OCC(C)(F)F)c4C3=O)cc2)cn1", "note": "[Example 78, 4-(2,2-difluoropropoxy)-6-(4-(1-methyl-1H-pyrazol-4-yl)benzyl)-6,7-dihydro-5H-pyrrolo[3,4-d]pyrimidin-5-one]", "values": [{"measurement": "activity (%) at 10 μM", "value": 95, "unit": "%"}, {"measurement": "EC50", "value": 19, "unit": "nM"}]}, {"smiles": "CCC(F)(F)COc1nccc2c1C(=O)N(Cc1ccc(-c3cnnc(C)c3)cc1)C2", "note": "[Example 19, 4-(2,2-difluorobutoxy)-2-(4-(6-methylpyridazin-4-yl)benzyl)-1,2-dihydro-3H-pyrrolo[3,4-c]pyridin-3-one]", "values": [{"measurement": "activity (%) at 10 μM", "value": 98, "unit": "%"}, {"measurement": "EC50", "value": 240, "unit": "nM"}]}, {"smiles": "CC(F)(F)COc1nccc2c1C(=O)N(Cc1ccc(-c3cnn(CC(F)F)c3)cc1)C2", "note": "[Example 13, 2-(4-(1-(2,2-difluoroethyl)-1H-pyrazol-4-yl)benzyl)-4-(2,2-difluoropropoxy)-1,2-dihydro-3H-pyrrolo[3,4-c]pyridin-3-one]", "values": [{"measurement": "activity (%) at 10 μM", "value": 100, "unit": "%"}, {"measurement": "EC50", "value": 55, "unit": "nM"}]}, {"smiles": "Cn1cc(-c2ccc(CN3Cc4ccnc(OCC(C)(F)F)c4C3=O)c(F)c2)nn1", "note": "[Example 106, 4-(2,2-difluoropropoxy)-2-(2-fluoro-4-(1-methyl-1H-1,2,3-triazol-4-yl)benzyl)-1,2-dihydro-3H-pyrrolo[3,4-c]pyridin-3-one]", "values": [{"measurement": "activity (%) at 10 μM", "value": 90, "unit": "%"}, {"measurement": "EC50", "value": 29, "unit": "nM"}]}, {"smiles": "CCn1cc(-c2ccc(CN3Cc4ccnc(OCC(F)F)c4C3=O)c(F)c2)cn1", "note": "[Example 58, 4-(2,2-difluoroethoxy)-2-(4-(1-ethyl-1H-pyrazol-4-yl)-2-fluorobenzyl)-1,2-dihydro-3H-pyrrolo[3,4-c]pyridin-3-one]", "values": [{"measurement": "activity (%) at 10 μM", "value": 104, "unit": "%"}, {"measurement": "EC50", "value": 35, "unit": "nM"}]}, {"smiles": "CCC(F)(F)COc1nccc2c1C(=O)N(Cc1ccc(-c3cnn(C)c3)cc1F)C2", "note": "[Example 92, 4-(2,2-difluorobutoxy)-2-(2-fluoro-4-(1-methyl-1H-pyrazol-4-yl)benzyl)-1,2-dihydro-3H-pyrrolo[3,4-c]pyridin-3-one]", "values": [{"measurement": "activity (%) at 10 μM", "value": 94, "unit": "%"}, {"measurement": "EC50", "value": 15, "unit": "nM"}]}, {"smiles": "CCC(F)(F)COc1ncnc2c1C(=O)N(Cc1ccc(-c3cnn(C)c3)cc1)C2", "note": "[Example 75, 4-(2,2-difluorobutoxy)-6-(4-(1-methyl-1H-pyrazol-4-yl)benzyl)-6,7-dihydro-5H-pyrrolo[3,4-d]pyrimidin-5-one]", "values": [{"measurement": "activity (%) at 10 μM", "value": 98, "unit": "%"}, {"measurement": "EC50", "value": 13, "unit": "nM"}]}, {"smiles": "CC(F)(F)COc1nccc2c1C(=O)N(Cc1ccc(-c3ccoc3)cc1F)C2", "note": "[Example 21, 4-(2,2-difluoropropoxy)-2-(2-fluoro-4-(3-furyl)benzyl)-1,2-dihydro-3H-pyrrolo[3,4-c]pyridin-3-one]", "values": [{"measurement": "activity (%) at 10 μM", "value": 101, "unit": "%"}, {"measurement": "EC50", "value": 290, "unit": "nM"}]}, {"smiles": "CCC(F)(F)COc1nccc2c1C(=O)N(Cc1ccc(-c3ccn(C)n3)cc1F)C2", "note": "[Example 97, 4-(2,2-difluorobutoxy)-2-(2-fluoro-4-(1-methyl-1H-pyrazol-3-yl)benzyl)-1,2-dihydro-3H-pyrrolo[3,4-c]pyridin-3-one]", "values": [{"measurement": "activity (%) at 10 μM", "value": 104, "unit": "%"}, {"measurement": "EC50", "value": 77, "unit": "nM"}]}, {"smiles": "Cc1cc(-c2ccc(CN3Cc4ncnc(OCC(F)(F)F)c4C3=O)cc2)ccn1", "note": "[Example 11, 6-(4-(2-methylpyridin-4-yl)benzyl)-4-(2,2,2-trifluoroethoxy)-6,7-dihydro-5H-pyrrolo[3,4-d]pyrimidin-5-one]", "values": [{"measurement": "activity (%) at 10 μM", "value": 87, "unit": "%"}, {"measurement": "EC50", "value": 23, "unit": "nM"}]}, {"smiles": "CCn1cc(-c2ccc(CN3Cc4ncnc(OCC(F)(F)CC)c4C3=O)cc2)cn1", "note": "[Example 68, 4-(2,2-difluorobutoxy)-6-(4-(1-ethyl-1H-pyrazol-4-yl)benzyl)-6,7-dihydro-5H-pyrrolo[3,4-d]pyrimidin-5-one]", "values": [{"measurement": "activity (%) at 10 μM", "value": 97, "unit": "%"}, {"measurement": "EC50", "value": 7.1, "unit": "nM"}]}, {"smiles": "CCn1cc(-c2ccc(CN3Cc4ccnc(OCC(C)(F)F)c4C3=O)cc2)cn1", "note": "[Example 84, 4-(2,2-difluoropropoxy)-2-(4-(1-ethyl-1H-pyrazol-4-yl)benzyl)-1,2-dihydro-3H-pyrrolo[3,4-c]pyridin-3-one]", "values": [{"measurement": "activity (%) at 10 μM", "value": 96, "unit": "%"}, {"measurement": "EC50", "value": 72, "unit": "nM"}]}, {"smiles": "CCn1cc(-c2ccc(CN3Cc4ccnc(OCC(F)F)c4C3=O)cc2)cn1", "note": "[Example 66, 4-(2,2-difluoroethoxy)-2-(4-(1-ethyl-1H-pyrazol-4-yl)benzyl)-1,2-dihydro-3H-pyrrolo[3,4-c]pyridin-3-one]", "values": [{"measurement": "activity (%) at 10 μM", "value": 105, "unit": "%"}, {"measurement": "EC50", "value": 66, "unit": "nM"}]}, {"smiles": "CCC(F)(F)COc1nccc2c1C(=O)N(Cc1ccc(-c3cn[nH]c3)cc1)C2", "note": "[Example 72, 4-(2,2-difluorobutoxy)-2-(4-(1H-pyrazol-4-yl)benzyl)-1,2-dihydro-3H-pyrrolo[3,4-c]pyridin-3-one]", "values": [{"measurement": "activity (%) at 10 μM", "value": 90, "unit": "%"}, {"measurement": "EC50", "value": 59, "unit": "nM"}]}, {"smiles": "O=C1c2c(ccnc2OCC(F)F)CN1Cc1ccc(-c2cnn(CC(F)(F)F)c2)cc1F", "note": "[Example 57]", "values": [{"measurement": "activity (%) at 10 μM", "value": 101, "unit": "%"}, {"measurement": "EC50", "value": 18, "unit": "nM"}]}, {"smiles": "CCC(F)(F)COc1ncnc2c1C(=O)N(Cc1ccc(-c3cn(C)nc3C)cc1F)C2", "note": "[Example 74, 4-(2,2-difluorobutoxy)-6-(4-(1,3-dimethyl-1H-pyrazol-4-yl)-2-fluorobenzyl)-6,7-dihydro-5H-pyrrolo[3,4-d]pyrimidin-5-one]", "values": [{"measurement": "activity (%) at 10 μM", "value": 101, "unit": "%"}, {"measurement": "EC50", "value": 8.7, "unit": "nM"}]}]}
